Assay [1] has as its target IKKε (Homo sapiens (Human), UniProt Q14164). Description: IKKε TR-FRET enzymatic assay. Format: biochemical. Particulars: read-out: IKKe IC50. On the technique in general: Time-resolved FRET reads energy transfer from a long-lived donor to a nearby acceptor.
Assay [2] has as its target hJAK2 (Homo sapiens (Human), UniProt O60674). The assay is described as follows: hJAK2 LANCE TR-FRET enzymatic assay. The class given is biochemical. Particulars: read-out: JAK2 IC50.
The target in assay [3] is TBK1 (Homo sapiens (Human), UniProt Q9UHD2). Description: TBK1 TR-FRET enzymatic assay.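 Also: phosphorylation of a biotinylated Ser/Thr peptide by purified full-length recombinant TBK1, read by TR-FRET after 240 min at 25 °C, IC50 is the geometric mean of at least four runs.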
[4] abbreviates: TR-FRET, 2×Km ATP, geometric mean of minimum four determinations.

Where two headings read alike, the source gives them in different places. A value given as a limit tells only on which side of the number the result lay.

Chain of IKKε (Q14164 whole entry): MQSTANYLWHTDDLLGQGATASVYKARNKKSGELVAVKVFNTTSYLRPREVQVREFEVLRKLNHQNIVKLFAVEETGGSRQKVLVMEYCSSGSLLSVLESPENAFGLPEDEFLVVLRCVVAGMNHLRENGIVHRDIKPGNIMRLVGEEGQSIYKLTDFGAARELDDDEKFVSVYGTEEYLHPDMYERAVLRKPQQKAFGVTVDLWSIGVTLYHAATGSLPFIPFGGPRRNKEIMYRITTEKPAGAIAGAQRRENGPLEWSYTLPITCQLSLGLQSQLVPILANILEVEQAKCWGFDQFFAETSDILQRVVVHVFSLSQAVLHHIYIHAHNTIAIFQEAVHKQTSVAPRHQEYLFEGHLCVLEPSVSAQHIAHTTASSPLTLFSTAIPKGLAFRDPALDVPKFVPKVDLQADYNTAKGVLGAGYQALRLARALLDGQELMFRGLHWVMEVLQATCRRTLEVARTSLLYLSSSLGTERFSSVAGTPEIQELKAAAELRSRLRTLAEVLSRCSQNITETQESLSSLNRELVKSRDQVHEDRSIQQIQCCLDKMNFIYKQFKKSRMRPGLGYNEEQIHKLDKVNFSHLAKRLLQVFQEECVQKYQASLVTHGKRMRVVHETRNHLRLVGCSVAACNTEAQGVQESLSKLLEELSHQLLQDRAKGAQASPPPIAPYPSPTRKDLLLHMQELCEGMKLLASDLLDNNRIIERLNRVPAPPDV
Chain of TBK1 (Q9UHD2 whole entry): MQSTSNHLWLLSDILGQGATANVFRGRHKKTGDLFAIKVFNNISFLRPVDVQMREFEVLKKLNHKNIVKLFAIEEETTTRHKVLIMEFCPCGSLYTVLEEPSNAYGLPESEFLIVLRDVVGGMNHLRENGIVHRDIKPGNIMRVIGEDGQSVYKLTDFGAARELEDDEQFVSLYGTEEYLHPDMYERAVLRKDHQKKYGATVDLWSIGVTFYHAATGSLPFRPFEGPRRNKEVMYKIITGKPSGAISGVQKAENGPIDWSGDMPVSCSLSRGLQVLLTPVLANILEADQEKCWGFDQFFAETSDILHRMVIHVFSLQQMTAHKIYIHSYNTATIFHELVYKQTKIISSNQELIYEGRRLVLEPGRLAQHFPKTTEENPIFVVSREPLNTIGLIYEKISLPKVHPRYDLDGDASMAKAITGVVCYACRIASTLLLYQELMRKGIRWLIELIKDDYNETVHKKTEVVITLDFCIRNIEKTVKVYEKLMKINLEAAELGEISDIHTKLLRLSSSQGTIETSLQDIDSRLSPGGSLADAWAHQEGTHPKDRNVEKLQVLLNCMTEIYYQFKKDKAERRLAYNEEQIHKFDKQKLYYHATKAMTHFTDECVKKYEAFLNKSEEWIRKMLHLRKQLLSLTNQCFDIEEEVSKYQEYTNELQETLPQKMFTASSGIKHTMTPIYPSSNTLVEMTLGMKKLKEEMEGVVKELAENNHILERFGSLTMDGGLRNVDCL
Chain of hJAK2 (O60674 whole entry): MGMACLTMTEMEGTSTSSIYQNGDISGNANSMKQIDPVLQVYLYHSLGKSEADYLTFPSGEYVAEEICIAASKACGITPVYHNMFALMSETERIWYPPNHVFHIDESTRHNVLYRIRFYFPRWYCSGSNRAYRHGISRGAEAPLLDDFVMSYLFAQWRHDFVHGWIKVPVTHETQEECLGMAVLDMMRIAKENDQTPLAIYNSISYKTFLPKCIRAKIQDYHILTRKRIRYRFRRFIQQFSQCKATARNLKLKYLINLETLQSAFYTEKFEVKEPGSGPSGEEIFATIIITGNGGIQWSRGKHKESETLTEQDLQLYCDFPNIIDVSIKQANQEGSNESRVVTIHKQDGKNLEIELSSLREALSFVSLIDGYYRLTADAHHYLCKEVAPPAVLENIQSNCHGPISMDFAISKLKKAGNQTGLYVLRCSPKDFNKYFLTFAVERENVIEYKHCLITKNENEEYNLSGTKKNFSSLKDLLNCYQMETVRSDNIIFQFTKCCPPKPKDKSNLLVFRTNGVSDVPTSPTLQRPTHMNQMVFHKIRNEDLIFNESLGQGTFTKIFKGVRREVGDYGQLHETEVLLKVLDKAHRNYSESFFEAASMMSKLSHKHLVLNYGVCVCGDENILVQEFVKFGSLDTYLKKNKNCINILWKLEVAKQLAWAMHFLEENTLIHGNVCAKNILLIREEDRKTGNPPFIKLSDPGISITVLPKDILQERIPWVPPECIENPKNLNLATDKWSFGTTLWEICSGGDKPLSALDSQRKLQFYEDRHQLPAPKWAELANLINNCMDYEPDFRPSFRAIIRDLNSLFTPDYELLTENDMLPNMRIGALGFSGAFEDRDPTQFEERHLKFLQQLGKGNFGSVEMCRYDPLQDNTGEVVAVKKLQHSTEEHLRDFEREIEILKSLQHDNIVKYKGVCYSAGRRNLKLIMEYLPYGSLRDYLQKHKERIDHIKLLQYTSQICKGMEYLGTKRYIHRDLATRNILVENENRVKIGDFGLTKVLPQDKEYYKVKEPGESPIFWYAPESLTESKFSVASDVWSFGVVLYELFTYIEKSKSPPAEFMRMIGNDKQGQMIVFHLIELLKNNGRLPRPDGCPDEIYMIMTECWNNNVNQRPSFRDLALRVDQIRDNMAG

By IC50 is commonly meant the concentration that gives 50% inhibition. With `N#Cc1cc(-c2ncnc(Nc3ccc(N4CCN(C5COC5)CC4)cc3)n2)ccc1O[C@H]1CCN(C(=O)[C@H]2CNC(=O)C2)C[C@H]1F` [Example 552, 2-(((3R,4S)-3-fluoro-1-((R)-5-oxopyrrolidine-3-carbonyl)piperidin-4-yl)oxy)-5-(4-((4-(4-(oxetan-3-yl)piperazin-1-yl)phenyl)amino)-1,3,5-triazin-2-yl)benzonitrile], the figures for the IC50 in assay [1] (setting [4]), in assay [2] and in assay [3] were 174 nM, 562 nM and 28 nM, respectively.

As to `CC(C)[C@H](Oc1ccc(-c2ncnc(Nc3ccc(N4CCN(C5COC5)CC4)cc3)n2)cc1C#N)C(N)=O` [Example 286, (S)-2-(2-cyano-4-(4-((4-(4-(oxetan-3-yl)piperazin-1-yl)phenyl)amino)-1,3,5-triazin-2-yl)phenoxy)-3-methylbutanamide], the IC50 in assay [1] is 237 nM; in assay [2] it was at least 1000 nM; in assay [3] it was 94 nM.

On to `C[C@@H]1CN(c2ccc(Nc3ncnc(-c4ccc(O[C@H]5CCN(C(=O)[C@@H](C)O)CC5(F)F)c(C#N)c4)n3)cc2)CCN1C1COC1` [Example 248, 2-(((S)-3,3-difluoro-1-((R)-2-hydroxypropanoyl)piperidin-4-yl)oxy)-5-(4-((4-((R)-3-methyl-4-(oxetan-3-yl)piperazin-1-yl)phenyl)amino)-1,3,5-triazin-2-yl)benzonitrile], for which the values for the IC50 in assay [1], in assay [2] and in assay [3] were 3 nM, 187 nM and 3 nM, respectively.

On to `N#Cc1cc(-c2ncnc(Nc3ccc(N4CCN(C5COC5)CC4)cc3)n2)ccc1O[C@H]1CCCC[C@H]1N` [Example 291, 2-(((1S,2R)-2-aminocyclohexyl)oxy)-5-(4-((4-(4-(oxetan-3-yl)piperazin-1-yl)phenyl)amino)-1,3,5-triazin-2-yl)benzonitrile], for which the figures for the IC50 in assay [1], in assay [2] and in assay [3] were 603 nM, 474 nM and 266 nM, respectively.

Turning to `C[C@H](O)C(=O)N1CC[C@H](Oc2ccc(-c3ncnc(Nc4ccc(N5CCOC[C@H]5CO)cc4)n3)cc2C#N)[C@H](F)C1` [Example 383, 2-(((3R,4S)-3-fluoro-1-((S)-2-hydroxypropanoyl)piperidin-4-yl)oxy)-5-(4-((4-((R)-3-(hydroxymethyl)morpholino)phenyl)amino)-1,3,5-triazin-2-yl)benzonitrile], the IC50 in assay [1] was 1 nM; in assay [2] it was 568 nM; in assay [3], 2 nM.

`N#Cc1cc(-c2ncnc(Nc3ccc(N4CCN(C5COC5)CC4)cc3)n2)ccc1O[C@H]1CCN(C(=O)C(O)CO)C[C@H]1F` (stereo partly drawn) [Example 348, 2-(((3R,4S)-1-(2,3-dihydroxypropanoyl)-3-fluoropiperidin-4-yl)oxy)-5-(4-((4-(4-(oxetan-3-yl)piperazin-1-yl)phenyl)amino)-1,3,5-triazin-2-yl)benzonitrile]: the half-inhibitory concentration (IC50) came to 3 nM in assay [1], 162 nM in assay [2] and 4 nM in assay [3].

On to `N#Cc1cc(-c2ncnc(Nc3cnn(C(F)F)c3)n2)ccc1O[C@H]1CCNC[C@H]1F` [Example 453, 5-(4-((1-(difluoromethyl)-1H-pyrazol-4-yl)amino)-1,3,5-triazin-2-yl)-2-(((3R,4S)-3-fluoropiperidin-4-yl)oxy)benzonitrile], for which the results for the half-inhibitory concentration (IC50) in assay [1] (setting [4]), in assay [2] and in assay [3] were 577 nM, at least 1000 nM and 39 nM, respectively.

As for `N#Cc1cc(-c2ncnc(Nc3cccc(N4CCOCC4)c3)n2)ccc1O[C@@H]1CCNC1` [Example 82, (R)-5-(4-((3-morpholinophenyl)amino)-1,3,5-triazin-2-yl)-2-(pyrrolidin-3-yloxy)benzonitrile], the IC50 came out at 53 nM in assay [1], 641 nM in assay [2] and 94 nM in assay [3].

For the molecule `N#Cc1cc(-c2ncnc(Nc3ccc(N4CCN(C5COC5)CC4)cc3)n2)ccc1O[C@H]1CCN(C(=O)C(O)CO)CC1(F)F` (stereo partly drawn) [Example 580, 2-(((4S)-1-(2,3-dihydroxypropanoyl)-3,3-difluoropiperidin-4-yl)oxy)-5-(4-((4-(4-(oxetan-3-yl)piperazin-1-yl)phenyl)amino)-1,3,5-triazin-2-yl)benzonitrile], the results for the IC50 in assay [1] (setting [4]), in assay [2] and in assay [3] were 1 nM, 165 nM and 2 nM, respectively.

For `CC(=O)Nc1ccc(Nc2ncnc(-c3ccc(O[C@H]4CCN(C(=O)[C@@H]5CCC(=O)N5)C[C@H]4F)c(C#N)c3)n2)cn1` [Example 537, N-(5-((4-(3-cyano-4-(((3R,4S)-3-fluoro-1-((S)-5-oxopyrrolidine-2-carbonyl)piperidin-4-yl)oxy)phenyl)-1,3,5-triazin-2-yl)amino)pyridin-2-yl)acetamide], the IC50 in assay [1] (setting [4]) was 18 nM; in assay [2], at least 1000 nM; in assay [3], 8 nM.

On to `N#Cc1cc(-c2ncnc(Nc3ccc(N4CCN(C5COC5)CC4)cc3)n2)ccc1OC1CCC(F)(F)CC1` [Example 60, 2-((4,4-difluorocyclohexyl)oxy)-5-(4-((4-(4-(oxetan-3-yl)piperazin-1-yl)phenyl)amino)-1,3,5-triazin-2-yl)benzonitrile], for which the IC50 in assay [1] was determined as 7 nM; in assay [2], 655 nM; in assay [3], 3 nM.

Take `CC(C)[C@H](O)C(=O)N1CC[C@H](Oc2ccc(-c3ncnc(Nc4ccc(N5CCN(C6COC6)CC5)cc4)n3)cc2C#N)[C@H](F)C1` [Example 461, 2-(((3R,4S)-3-fluoro-1-((S)-2-hydroxy-3-methylbutanoyl)piperidin-4-yl)oxy)-5-(4-((4-(4-(oxetan-3-yl)piperazin-1-yl)phenyl)amino)-1,3,5-triazin-2-yl)benzonitrile]: the values for the IC50 in assay [1] (setting [4]), in assay [2] and in assay [3] were 63 nM, 930 nM and 16 nM, respectively.

In the case of `N#Cc1cc(-c2ncnc(Nc3ccc(N4CCN(C5COC5)CC4)cc3)n2)ccc1OC1CCS(=O)(=O)CC1` [Example 17, 2-((1,1-dioxidotetrahydro-2H-thiopyran-4-yl)oxy)-5-(4-((4-(4-(oxetan-3-yl)piperazin-1-yl)phenyl)amino)-1,3,5-triazin-2-yl)benzonitrile], the values for the concentration for half-maximal inhibition (IC50) in assay [1], in assay [2] and in assay [3] were 54 nM, 540 nM and 9 nM, respectively.

Consider `N#Cc1cc(-c2ncnc(Nc3ccc(N4CCN(C5COC5)CC4)c(C(F)(F)F)c3)n2)ccc1O[C@H]1CCN(C(=O)CO)C[C@H]1F` [Example 368, 2-(((3R,4S)-3-fluoro-1-(2-hydroxyacetyl)piperidin-4-yl)oxy)-5-(4-((4-(4-(oxetan-3-yl)piperazin-1-yl)-3-(trifluoromethyl)phenyl)amino)-1,3,5-triazin-2-yl)benzonitrile], for which the values for the IC50 in assay [1], in assay [2] and in assay [3] were 2 nM, 225 nM and 3 nM, respectively.

Consider `N#Cc1cc(-c2ncnc(Nc3ccc(N4CCN(C5COC5)CC4)cc3)n2)ccc1O[C@H]1CCN(C2COC2)C[C@H]1F` [Example 111, 2-(((3R,4S)-3-fluoro-1-(oxetan-3-yl)piperidin-4-yl)oxy)-5-(4-((4-(4-(oxetan-3-yl)piperazin-1-yl)phenyl)amino)-1,3,5-triazin-2-yl)benzonitrile], for which the concentration for half-maximal inhibition (IC50) came to 328 nM in assay [1], 602 nM in assay [2] and 146 nM in assay [3].

As to `CC1CC(Oc2ccc(-c3ncnc(Nc4ccc(N5CCN(C6COC6)CC5)cc4)n3)cc2C#N)CC(C)N1C(=O)CO` (stereo not drawn) [Example 171, 2-((1-(2-hydroxyacetyl)-2,6-dimethylpiperidin-4-yl)oxy)-5-(4-((4-(4-(oxetan-3-yl)piperazin-1-yl)phenyl)amino)-1,3,5-triazin-2-yl)benzonitrile], the IC50 amounted to 9 nM in assay [1], 463 nM in assay [2] and 2 nM in assay [3].

Consider `C[C@@H]1OC(=O)N[C@@H]1C(=O)N1CC[C@H](Oc2ccc(-c3ncnc(Nc4ccc(N5CCN(C6COC6)CC5)cc4)n3)cc2C#N)[C@H](F)C1` [Example 524, 2-(((3R,4S)-3-fluoro-1-((4S,5S)-5-methyl-2-oxooxazolidine-4-carbonyl)piperidin-4-yl)oxy)-5-(4-((4-(4-(oxetan-3-yl)piperazin-1-yl)phenyl)amino)-1,3,5-triazin-2-yl)benzonitrile], for which the 50% inhibitory concentration (IC50) turned out to be 29 nM in assay [1] (setting [4]), 959 nM in assay [2] and 7 nM in assay [3].

On to `C[C@H]1CN(C2COC2)CCN1c1ccc(Nc2ncnc(-c3ccc(O[C@H]4CCN(C(=O)c5cnc[nH]5)C[C@H]4F)c(C#N)c3)n2)cc1` [Example 256, 2-(((3R,4S)-3-fluoro-1-(1H-imidazole-5-carbonyl)piperidin-4-yl)oxy)-5-(4-((4-((S)-2-methyl-4-(oxetan-3-yl)piperazin-1-yl)phenyl)amino)-1,3,5-triazin-2-yl)benzonitrile], for which the IC50 was 1 nM in assay [1], 144 nM in assay [2] and 3 nM in assay [3].

On to `CC1(C)CN(C(=O)CO)CC(F)C1Oc1ccc(-c2ncnc(Nc3ccc(N4CCN(C5COC5)CC4)cc3)n2)cc1C#N` (stereo not drawn) [Example 177, 2-((5-fluoro-1-(2-hydroxyacetyl)-3,3-dimethylpiperidin-4-yl)oxy)-5-(4-((4-(4-(oxetan-3-yl)piperazin-1-yl)phenyl)amino)-1,3,5-triazin-2-yl)benzonitrile], for which the IC50 in assay [1] turned out to be 3 nM; in assay [2], 117 nM; in assay [3], 6 nM.

In the case of `CC(C)NC(=O)c1ccc(Nc2ncnc(-c3ccc(O[C@@H]4CCNC4)c(C#N)c3)n2)cc1` [Example 84, (R)-4-((4-(3-cyano-4-(pyrrolidin-3-yloxy)phenyl)-1,3,5-triazin-2-yl)amino)-N-isopropylbenzamide], the IC50 in assay [1] was 166 nM; in assay [2], 805 nM; in assay [3], 72 nM.

On to `Cc1c(Nc2ncnc(-c3ccc(O[C@H]4CCN(C(=O)[C@@H](O)CO)C[C@H]4F)c(C#N)c3)n2)cnn1C` [Example 567, 2-(((3R,4S)-1-((S)-2,3-dihydroxypropanoyl)-3-fluoropiperidin-4-yl)oxy)-5-(4-((1,5-dimethyl-1H-pyrazol-4-yl)amino)-1,3,5-triazin-2-yl)benzonitrile], for which the IC50 in assay [1] (setting [4]) is 7 nM; in assay [2], at least 1000 nM; in assay [3], 3 nM.

The values above are taken from patent US10040781B2, “Tank-binding kinase inhibitor compounds” (Gilead Sciences, Inc., priority 2014, dated 2018).
